# From US7393812B2, “Methylidene mevalonates and their use as herbicides” (Dow AgroSciences LLC, priority 2004, dated 2008)
# Tests used:
# Experiment in all cases: Post-emergent evaluation
# Assay type in all cases: in vivo
# Conditions in all cases: after 2 weeks
# [1] = test system: giant foxtail (Setaria faberi, SETFA)
# Protocol: (§1) Seeds of the desired test plant species were planted in Grace-Sierra MetroMix® 306 planting mixture, which typically has a pH of 6.0 to 6.8 and an organic matter content of about 30 percent, in plastic pots with a surface area of 64 square centimeters. When required to ensure good germination and healthy plants, a fungicide treatment and/or other chemical or physical treatment was applied. The plants were grown for 7-21 days in a greenhouse with an approximate 15 hr photoperiod which was maintained at about 23-29° C. during the day and 22-28° C. during the night. Nutrients and water were added on a regular basis and supplemental lighting was provided with overhead metal halide 1000-Watt lamps as necessary. The plants were employed for testing when they reached the first or second true leaf stage.
# (§2) A weighed amount, determined by the highest rate to be tested, of each test compound was placed in a 20 mL glass vial and was dissolved in 4 mL of a 97:3 v/v (volume/volume) mixture of acetone and dimethyl sulfoxide (DMSO) to obtain concentrated stock solutions. […] The concentrated stock solutions obtained were diluted with an aqueous mixture containing acetone, water, isopropyl alcohol, DMSO, Atplus 411F crop oil concentrate, and Triton X-155 surfactant in a 48.5:39:10:1.5:1.0:0.02 v/v ratio to obtain spray solutions of known concentration. The solutions containing the highest concentration to be tested were prepared by diluting 2 mL aliquots of the stock solution with 13 mL of the mixture and lower concentrations were prepared by serial dilution of the stock solution. Approximately 1.5 mL aliquots of each solution of known concentration were sprayed evenly onto each of the test plant pots using a DeVilbiss atomizer driven by compressed air pressure of 2 to 4 psi ([…]) to obtain thorough coverage of each plant. Control plants were sprayed in the same manner with the aqueous mixture. In this test an application rate of 1 ppm results in the application of approximately 1 g/Ha.
# (§3) The treated plants and control plants were placed in a greenhouse as described above and watered by sub-irrigation to prevent wash-off of the test compounds. […] Species abbreviations as described for Table I with the following additions: soybean (Glycine max, GLXMA), rape (Brassica napus, BRSNN), chickweed (Stellaria media, STEME), cocklebur (Xanthium strumarium XANST), lambsquarters (Chenopodium album, CHEAL), violet (Viola tricolor, VIOTR), bindweed (Polygonum convolvulus, POLCO), spurge (Euphorbia heterophylla, EPHHL), Canada thistle (Cirsium arvense, CIRAR), corn (Zea mays, ZEAMX), rice (Oryza sativa, ORYSA), wheat (Triticum aestivum, TRZAS), crabgrass (Digitaria sanguinalis, DIGSA), shattercane (Sorghum vulgare, SORVU) and yellow nutsedge (Cyperus esculentus, CYPES).
# (§4) By applying the well-accepted probit analysis as described by J. Berkson in Journal of the American Statistical […], 48, 565 (1953) and by D. Finney in “Probit Analysis” Cambridge University Press (1952), similar data can be used to calculate GR80 values, which are defined as growth reduction factors that correspond to the effective dose of herbicide required to kill or control 80 percent of a target plant. Species abbreviations are as previously defined.
# [2] = test system: shattercane (Sorghum vulgare, SORVU)
# Protocol: as §1, §2, §3, §4
# [3] = test system: velvetleaf (Abutilon theophrasti, ABUTH)
# Protocol: as §1, §2, §3, §4
# [4] = test system: morningglory (Ipomoea hederacea, IPOHE)
# Protocol: as §1, §2, §3, §4
# [5] = test system: violet (Viola tricolor, VIOTR)
# Protocol: as §1, §2, §3, §4
# [6] = test system: chickweed (Stellaria media, STEME)
# Protocol: as §1, §2, §3, §4
# [7] = test system: barnyardgrass (Echinochloa crusgalli, ECHCG)
# Protocol: as §1, §2, §3, §4
smiles,measurement,setting,value
"C=C(CO)C(C)(O)CC(=O)O (centres unmarked) [methylidene mevalonate, 3-hydroxy-4-(hydroxymethyl)-3-methylpent-4-enoic acid]",Postemergent % Control,[1]; spray concentration 125 ppm,30%
same,Postemergent % Control,[1]; spray concentration 250 ppm,70%
same,Postemergent % Control,[1]; spray concentration 500 ppm,70%
same,Postemergent % Control,[1]; spray concentration 1000 ppm,80%
same,Postemergent % Control,[1]; spray concentration 2000 ppm,90%
same,Postemergent % Control,[2]; spray concentration 125 ppm,0%
same,Postemergent % Control,[2]; spray concentration 250 ppm,50%
same,Postemergent % Control,[2]; spray concentration 500 ppm,90%
same,Postemergent % Control,[2]; spray concentration 1000 ppm,90%
same,Postemergent % Control,[2]; spray concentration 2000 ppm,90%
same,Postemergent % Control,[3]; spray concentration 125 ppm,0%
same,Postemergent % Control,[3]; spray concentration 250 ppm,5%
same,Postemergent % Control,[3]; spray concentration 500 ppm,20%
same,Postemergent % Control,[3]; spray concentration 1000 ppm,50%
same,Postemergent % Control,[3]; spray concentration 2000 ppm,60%
same,Postemergent % Control,[4]; spray concentration 125 ppm,40%
same,Postemergent % Control,[4]; spray concentration 250 ppm,50%
same,Postemergent % Control,[4]; spray concentration 500 ppm,70%
same,Postemergent % Control,[4]; spray concentration 1000 ppm,80%
same,Postemergent % Control,[4]; spray concentration 2000 ppm,80%
same,Postemergent % Control,[5]; spray concentration 125 ppm,0%
same,Postemergent % Control,[5]; spray concentration 250 ppm,0%
same,Postemergent % Control,[5]; spray concentration 500 ppm,0%
same,Postemergent % Control,[5]; spray concentration 1000 ppm,25%
same,Postemergent % Control,[5]; spray concentration 2000 ppm,30%
same,Postemergent % Control,[6]; spray concentration 125 ppm,0%
same,Postemergent % Control,[6]; spray concentration 250 ppm,0%
same,Postemergent % Control,[6]; spray concentration 500 ppm,0%
same,Postemergent % Control,[6]; spray concentration 1000 ppm,20%
same,Postemergent % Control,[6]; spray concentration 2000 ppm,40%
same,Postemergent % Control,[7]; spray concentration 125 ppm,40%
same,Postemergent % Control,[7]; spray concentration 250 ppm,85%
same,Postemergent % Control,[7]; spray concentration 500 ppm,95%
same,Postemergent % Control,[7]; spray concentration 1000 ppm,95%
same,Postemergent % Control,[7]; spray concentration 2000 ppm,100%
